Consider nine compounds from patent publication US20170137410A1, “FUSED CYCLOALKYL-PYRIMIDINE COMPOUNDS AND USES THEREOF” (Medivation Technologies, Inc., priority 2014, published 2017).

Holding throughout (assay type): biochemical
Experiment [1] has as its target Trk A (Homo sapiens, UniProt P04629). Description: HotSpot kinase assay against Trk A. Particulars: HotSpot 33P assay, ATP 10 μM-30 μM. As to the method:
(§1) Kinase assays were performed using test compounds against a panel of Trk kinases: Trk A; Trk B; and Trk C. Each compound was tested at a concentration of 0.1 μM in single duplicate mode against the three kinases. Compounds were prepared as 10 mM stock solutions in DMSO prior to use in the assay. The control compound, staurosporine, was tested at 10 concentrations with three-fold serial dilution starting at 20 μM. IC50 values and curve fits were obtained using Prism (GraphPad Software). IC50 values were determined for staurosporine for comparison.
(§2) The screening was performed using the “HotSpot” assay platform. The assay measures the conversion of a peptide substrate to ^33P-labelled phosphorylated product. Briefly, specific kinase/substrate pairs along with required cofactors were prepared in reaction buffer. Specifically, the substrate was prepared in reaction buffer (20 mM Hepes, pH 7.5; 10 mM MgCl2; 1 mM EGTA; 0.02% Brij35; 0.02 mg/mL BSA; 0.1 mM Na3VO4; 2 mM DTT; 1% DMSO), followed by delivery of any required cofactor to the resulting substrate solution. The corresponding kinase was delivered into the substrate solution and the reaction mixture was mixed gently. Compound was delivered into the reaction mixture, followed 15-20 min later by addition of a mixture of ATP (Sigma, St. Louis Mo.) and ^33P ATP (specific activity 0.01 μCi/μL final; Perkin Elmer, Waltham, Mass.) to a final concentration of 10 μM-30 μM to initiate the reaction. Reactions were carried out at RT for 120 min, followed by spotting of the reactions onto P81 ion exchange filter paper (Whatman #3698-915; Whatman Inc., Piscataway, N.J.). Unbound phosphate was removed by extensive washing of filters in 0.75% phosphoric acid. […] The percent of enzyme inhibition was calculated based on the percent of remaining kinase activity.

The target of experiment [2] is Trk B (Homo sapiens, UniProt Q16620). Description: HotSpot kinase assay against Trk B. Particulars: HotSpot 33P assay, ATP 10 μM-30 μM. As to the method:
as §1, §2

Experiment [3] concerns the target Trk C (Homo sapiens, UniProt Q16288). Put plainly: HotSpot kinase assay against Trk C. Particulars: HotSpot 33P assay, ATP 10 μM-30 μM. Here is the method: as §1, §2
Experiment [4] deals with T1, activated IGF-1R (Homo sapiens, UniProt P08069).
T1 construct: purchased Millipore 14-802
Description: In vitro IGF-1R enzymatic assay (ADP-Glo). As to conditions: ATP 100 μM; for inhibition at 1 µM: compound 1 μM; for inhibition at 3 µM: compound 3 μM; for inhibition at 10 µM: compound 10 μM; for inhibition at 30 µM: compound 30 μM. As to the method:
(§3) Inhibition of IGF-1R and IR kinases by compounds described herein were tested. The IC50 values were measured in vitro using an ADP-Glo kinase assay Kit (Promega). For the IGF-1R assay, active recombinant IGF-1R (Millipore #14-802) was used at 1 ng/reaction, the substrate IGF-1R tide (Millipore #12-527) was used at 125 μM and ATP was used at 100 μM. For the IR assay, active recombinant IR (Millipore #14-803) was used at 1 ng/reaction, the substrate Axl tide (Millipore #12-516) was used at 125 μM and ATP at 50 μM. Kinase reactions in both assays were conducted at 30° C. for 20 min with increasing concentrations of the test compounds.
(§4) The assay results as the percent inhibition of binding are presented in Tables B2 and B3 for IGF-1R and IR respectively.

In experiment [5] the target is T2, activated IR (Homo sapiens, UniProt P06213).
T2 construct: purchased Millipore 14-803
Description: In vitro IR enzymatic assay (ADP-Glo). Particulars: ATP 50 μM; for inhibition at 1 µM: compound 1 μM; for inhibition at 3 µM: compound 3 μM; for inhibition at 30 µM: compound 30 μM. As to the method: as §3, §4

Sequence of Trk C (Q16288 32-839): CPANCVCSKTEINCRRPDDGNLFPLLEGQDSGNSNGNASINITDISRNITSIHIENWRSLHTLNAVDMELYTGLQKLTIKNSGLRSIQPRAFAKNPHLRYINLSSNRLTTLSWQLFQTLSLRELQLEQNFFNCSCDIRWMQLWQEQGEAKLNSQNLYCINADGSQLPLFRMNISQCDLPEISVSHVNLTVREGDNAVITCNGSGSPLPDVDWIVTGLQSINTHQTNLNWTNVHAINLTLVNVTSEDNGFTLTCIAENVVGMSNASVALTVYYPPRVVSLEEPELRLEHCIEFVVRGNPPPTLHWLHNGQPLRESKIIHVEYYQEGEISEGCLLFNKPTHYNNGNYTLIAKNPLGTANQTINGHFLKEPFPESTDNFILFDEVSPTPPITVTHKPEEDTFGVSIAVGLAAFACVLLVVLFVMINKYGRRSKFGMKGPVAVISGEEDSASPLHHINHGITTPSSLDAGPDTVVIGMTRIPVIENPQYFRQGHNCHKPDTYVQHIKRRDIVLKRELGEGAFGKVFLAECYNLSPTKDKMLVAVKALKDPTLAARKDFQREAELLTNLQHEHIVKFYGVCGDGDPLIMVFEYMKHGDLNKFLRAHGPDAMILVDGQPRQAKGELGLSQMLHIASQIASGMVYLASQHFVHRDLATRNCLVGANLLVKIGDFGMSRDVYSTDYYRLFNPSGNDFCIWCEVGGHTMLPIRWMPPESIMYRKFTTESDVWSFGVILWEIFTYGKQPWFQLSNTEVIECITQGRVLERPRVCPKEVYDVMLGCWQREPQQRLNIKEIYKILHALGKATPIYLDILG
T1 sequence (P08069 31-1367): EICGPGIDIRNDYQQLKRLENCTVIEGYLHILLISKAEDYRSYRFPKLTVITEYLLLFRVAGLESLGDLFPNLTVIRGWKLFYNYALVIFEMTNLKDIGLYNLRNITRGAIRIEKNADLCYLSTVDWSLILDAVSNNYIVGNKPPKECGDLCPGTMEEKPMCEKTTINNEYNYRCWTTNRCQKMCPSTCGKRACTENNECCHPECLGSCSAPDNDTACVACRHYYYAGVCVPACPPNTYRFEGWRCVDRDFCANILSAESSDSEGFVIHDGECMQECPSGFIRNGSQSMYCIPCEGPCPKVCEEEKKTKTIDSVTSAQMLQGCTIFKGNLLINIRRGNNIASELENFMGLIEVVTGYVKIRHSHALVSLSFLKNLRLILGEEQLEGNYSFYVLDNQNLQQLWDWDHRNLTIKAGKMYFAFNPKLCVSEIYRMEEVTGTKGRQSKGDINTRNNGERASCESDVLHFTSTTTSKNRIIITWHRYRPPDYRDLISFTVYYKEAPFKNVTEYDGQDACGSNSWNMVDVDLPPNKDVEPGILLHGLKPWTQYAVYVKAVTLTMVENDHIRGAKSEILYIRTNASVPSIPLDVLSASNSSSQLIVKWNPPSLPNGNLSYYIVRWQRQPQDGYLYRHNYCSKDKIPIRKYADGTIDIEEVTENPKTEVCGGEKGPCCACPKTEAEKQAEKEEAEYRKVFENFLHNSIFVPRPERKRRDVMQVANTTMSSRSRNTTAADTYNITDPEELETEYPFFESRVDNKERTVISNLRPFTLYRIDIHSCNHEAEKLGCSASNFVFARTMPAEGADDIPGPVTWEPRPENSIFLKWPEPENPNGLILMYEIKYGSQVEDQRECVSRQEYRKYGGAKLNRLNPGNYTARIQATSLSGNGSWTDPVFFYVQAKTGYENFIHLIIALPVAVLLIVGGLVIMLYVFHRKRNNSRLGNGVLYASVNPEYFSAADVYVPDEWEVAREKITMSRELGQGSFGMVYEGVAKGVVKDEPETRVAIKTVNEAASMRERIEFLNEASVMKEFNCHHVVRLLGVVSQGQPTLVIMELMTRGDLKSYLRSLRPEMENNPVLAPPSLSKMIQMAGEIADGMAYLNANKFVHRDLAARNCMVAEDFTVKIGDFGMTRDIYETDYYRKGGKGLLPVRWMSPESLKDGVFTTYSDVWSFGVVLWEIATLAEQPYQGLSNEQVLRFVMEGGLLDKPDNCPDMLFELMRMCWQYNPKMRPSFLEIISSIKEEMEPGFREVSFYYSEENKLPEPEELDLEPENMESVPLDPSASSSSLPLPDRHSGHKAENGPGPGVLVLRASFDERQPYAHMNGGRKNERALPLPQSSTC
T2 sequence (P06213 28-1382): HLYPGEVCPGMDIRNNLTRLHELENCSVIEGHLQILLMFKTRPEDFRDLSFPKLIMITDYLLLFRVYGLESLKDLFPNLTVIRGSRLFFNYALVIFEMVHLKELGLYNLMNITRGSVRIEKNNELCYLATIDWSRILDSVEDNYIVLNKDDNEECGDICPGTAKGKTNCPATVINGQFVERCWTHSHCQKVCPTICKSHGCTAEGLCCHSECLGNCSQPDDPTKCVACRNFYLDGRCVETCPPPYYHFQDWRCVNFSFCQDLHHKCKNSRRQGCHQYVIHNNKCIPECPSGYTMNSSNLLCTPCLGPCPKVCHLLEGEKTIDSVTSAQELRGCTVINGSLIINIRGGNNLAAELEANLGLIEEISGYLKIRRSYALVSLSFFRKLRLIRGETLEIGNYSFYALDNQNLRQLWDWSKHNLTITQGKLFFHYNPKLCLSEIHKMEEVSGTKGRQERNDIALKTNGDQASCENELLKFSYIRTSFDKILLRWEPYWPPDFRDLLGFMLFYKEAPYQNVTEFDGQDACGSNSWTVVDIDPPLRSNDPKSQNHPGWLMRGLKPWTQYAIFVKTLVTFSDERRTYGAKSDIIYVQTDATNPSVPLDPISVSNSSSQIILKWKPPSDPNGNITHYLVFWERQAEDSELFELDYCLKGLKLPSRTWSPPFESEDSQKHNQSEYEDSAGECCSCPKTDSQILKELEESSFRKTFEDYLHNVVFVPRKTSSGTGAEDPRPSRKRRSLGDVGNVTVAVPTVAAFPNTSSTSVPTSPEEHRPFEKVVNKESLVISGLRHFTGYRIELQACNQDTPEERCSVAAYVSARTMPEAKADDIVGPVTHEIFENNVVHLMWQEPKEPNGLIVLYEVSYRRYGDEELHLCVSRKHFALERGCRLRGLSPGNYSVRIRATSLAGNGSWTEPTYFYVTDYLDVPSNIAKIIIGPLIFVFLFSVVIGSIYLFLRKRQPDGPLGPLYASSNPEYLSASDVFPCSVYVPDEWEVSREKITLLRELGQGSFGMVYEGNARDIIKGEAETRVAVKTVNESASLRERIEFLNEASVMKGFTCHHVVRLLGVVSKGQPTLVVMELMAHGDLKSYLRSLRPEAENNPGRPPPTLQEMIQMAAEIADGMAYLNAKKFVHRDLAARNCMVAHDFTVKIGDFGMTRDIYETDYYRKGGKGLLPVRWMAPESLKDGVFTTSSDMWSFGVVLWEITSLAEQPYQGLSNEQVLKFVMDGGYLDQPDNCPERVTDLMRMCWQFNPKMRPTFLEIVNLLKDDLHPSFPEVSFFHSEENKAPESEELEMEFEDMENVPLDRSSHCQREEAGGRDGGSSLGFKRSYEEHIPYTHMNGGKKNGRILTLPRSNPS
Sequence of Trk A (P04629 33-796): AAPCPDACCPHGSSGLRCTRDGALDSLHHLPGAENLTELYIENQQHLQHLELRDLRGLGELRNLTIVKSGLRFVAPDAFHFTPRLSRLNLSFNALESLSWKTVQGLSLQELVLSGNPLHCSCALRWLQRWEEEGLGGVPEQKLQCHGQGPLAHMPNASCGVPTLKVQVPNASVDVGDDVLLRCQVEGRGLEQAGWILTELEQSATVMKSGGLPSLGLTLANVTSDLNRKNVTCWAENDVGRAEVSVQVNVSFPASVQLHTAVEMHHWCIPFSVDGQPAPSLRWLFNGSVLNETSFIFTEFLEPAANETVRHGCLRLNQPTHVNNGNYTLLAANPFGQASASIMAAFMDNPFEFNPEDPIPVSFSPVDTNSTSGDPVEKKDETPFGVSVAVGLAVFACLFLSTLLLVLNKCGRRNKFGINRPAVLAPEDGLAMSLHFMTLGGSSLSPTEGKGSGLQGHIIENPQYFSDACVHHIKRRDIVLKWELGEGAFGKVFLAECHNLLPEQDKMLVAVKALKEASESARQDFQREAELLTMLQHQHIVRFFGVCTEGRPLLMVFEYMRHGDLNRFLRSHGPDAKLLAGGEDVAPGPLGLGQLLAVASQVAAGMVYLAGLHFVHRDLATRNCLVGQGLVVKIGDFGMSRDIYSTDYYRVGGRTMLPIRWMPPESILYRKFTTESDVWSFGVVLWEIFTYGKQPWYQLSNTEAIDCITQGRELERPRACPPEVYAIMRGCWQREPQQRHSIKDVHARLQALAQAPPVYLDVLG
Sequence of Trk B (Q16620 32-822): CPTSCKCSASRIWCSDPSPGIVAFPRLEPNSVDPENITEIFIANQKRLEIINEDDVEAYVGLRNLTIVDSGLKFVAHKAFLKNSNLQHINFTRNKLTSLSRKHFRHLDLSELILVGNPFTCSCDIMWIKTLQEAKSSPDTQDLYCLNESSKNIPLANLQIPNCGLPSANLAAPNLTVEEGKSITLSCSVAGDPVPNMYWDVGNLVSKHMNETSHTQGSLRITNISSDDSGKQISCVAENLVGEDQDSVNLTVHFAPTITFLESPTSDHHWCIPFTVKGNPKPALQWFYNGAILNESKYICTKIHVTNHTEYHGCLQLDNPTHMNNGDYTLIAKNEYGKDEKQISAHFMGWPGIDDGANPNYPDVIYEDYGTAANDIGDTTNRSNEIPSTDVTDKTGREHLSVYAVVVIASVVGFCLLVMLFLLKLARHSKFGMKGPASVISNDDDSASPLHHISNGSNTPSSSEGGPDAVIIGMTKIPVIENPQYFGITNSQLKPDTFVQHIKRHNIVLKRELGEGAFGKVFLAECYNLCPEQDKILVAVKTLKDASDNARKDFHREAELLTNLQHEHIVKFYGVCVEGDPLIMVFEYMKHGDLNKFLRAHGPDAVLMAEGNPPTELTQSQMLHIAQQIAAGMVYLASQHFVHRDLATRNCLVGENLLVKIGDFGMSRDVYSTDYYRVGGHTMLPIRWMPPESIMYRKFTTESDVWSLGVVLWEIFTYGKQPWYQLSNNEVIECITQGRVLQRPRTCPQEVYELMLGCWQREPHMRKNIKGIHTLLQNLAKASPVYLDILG

What is called IC50 is the concentration at which inhibition is half-maximal. Read a low IC50 as greater potency. In general, inhibition refers to the drop in the measured response relative to a control, in per cent. In the case of `O=C([C@@H]1CCCN1c1nc2c(c(Nc3cc(C4CCCC4)[nH]n3)n1)CCC2)N1CCC(F)(F)C1` [109b, (S)-(1-(4-((5-cyclopentyl-1H-pyrazol-3-yl)amino)-6,7-dihydro-5H-cyclopenta[d]pyrimidin-2-yl)pyrrolidin-2-yl)(3,3-difluoropyrrolidin-1-yl)methanone], in experiment [1], the IC50 was 11 nM. The IC50 in experiment [2] is 1 nM. In addition, in experiment [3], inhibition was half-maximal at 0.3 nM (IC50). For the same compound, in experiment [4], the inhibition at 1 µM is 12%, the inhibition at 3 µM stood at 33%, the inhibition at 10 µM is 61% and the inhibition at 30 µM turned out to be 84%. Besides, in experiment [5], the inhibition at 1 µM is 12%, the inhibition at 3 µM worked out at 39% and the inhibition at 30 µM stood at 86%.

`CN1CCN(C(=O)[C@@H]2CCCN2c2nc3c(c(Nc4cc(C5CCCC5)[nH]n4)n2)CCC3)CC1` [134b, (S)-(1-(4-(5-cyclopentyl-1H-pyrazol-3-ylamino)-6,7-dihydro-5H-cyclopenta[d]pyrimidin-2-yl)pyrrolidin-2-yl)(4-methylpiperazin-1-yl)methanone] came in with an IC50 in experiment [1] of 337 nM. For the same compound, in experiment [2], the IC50 was found to be 31 nM. In experiment [3], this compound gave an IC50 of 4.8 nM. Besides, in experiment [4], the inhibition at 1 µM worked out at 16%, the inhibition at 3 µM stood at 26%, the inhibition at 10 µM worked out at 55% and the inhibition at 30 µM came out at 77%. Further, in experiment [5], the inhibition at 1 µM came out at 26%, the inhibition at 3 µM worked out at 36% and the inhibition at 30 µM was determined as 85%.

As for `O=C(Nc1nccs1)[C@@H]1CCCN1c1nc2c(c(Nc3cc(C4CCCC4)[nH]n3)n1)CCC2` [133b, (S)-1-(4-(5-cyclopentyl-1H-pyrazol-3-ylamino)-6,7-dihydro-5H-cyclopenta[d]pyrimidin-2-yl)-N-(thiazol-2-yl)pyrrolidine-2-carboxamide], the IC50 was 0.515 nM in experiment [1], 0.038 nM in experiment [2] and 0.243 nM in experiment [3]. The inhibition at 1 µM in experiment [4] stood at 95%; in experiment [5], 97%.

For the compound `CN(C(=O)[C@@H]1CCCN1c1nc2c(c(Nc3cc(C4CCCC4)n[nH]3)n1)CCC2)c1nccs1` [70b, (2S)-1-[4-[(3-cyclopentyl-1H-pyrazol-5-yl)amino]-6,7-dihydro-5H-cyclopenta[d]pyrimidin-2-yl]-N-methyl-N-thiazol-2-yl-pyrrolidine-2-carboxamide], the values for the IC50 in experiment [1], in experiment [2] and in experiment [3] were 26 nM, 2 nM and 1.2 nM, respectively. The inhibition at 1 µM stood at 35% in experiment [4] and 30% in experiment [5]. For the same compound, the inhibition at 3 µM was 57% in experiment [4] and 60% in experiment [5]. Also, in experiment [4], the inhibition at 10 µM was 83%. Also, the inhibition at 30 µM in experiment [4] turned out to be 95%; in experiment [5], 97%.

`CC1(C)CCN(C(=O)[C@@H]2CCCN2c2nc3c(c(Nc4cc(C5CCCC5)n[nH]4)n2)CCC3)CC1` [135b, [(2S)-1-[4-[(3-cyclopentyl-1H-pyrazol-5-yl)amino]-6,7-dihydro-5H-cyclopenta[d]pyrimidin-2-yl]pyrrolidin-2-yl]-(4,4-dimethyl-1-piperidyl)methanone] showed an IC50 in experiment [1] of 12 nM. Besides, 1 nM corresponded to half-maximal inhibition in experiment [2] (IC50). For the same compound, in experiment [3], the concentration for half-maximal inhibition (IC50) worked out at 2.5 nM. Also, in experiment [4], the inhibition at 1 µM stood at 12%, the inhibition at 3 µM is 14%, the inhibition at 10 µM stood at 43% and the inhibition at 30 µM stood at 82%. Moreover, in experiment [5], the inhibition at 1 µM came to 11%, the inhibition at 3 µM was 26% and the inhibition at 30 µM was determined as 88%.

Compound `CC(=O)N1CCN(C(=O)[C@@H]2CCCN2c2nc3c(c(Nc4cc(C5CCCC5)n[nH]4)n2)CCC3)CC1` [137b, 1-[4-[(2S)-1-[4-[(3-cyclopentyl-1H-pyrazol-5-yl)amino]-6,7-dihydro-5H-cyclopenta[d]pyrimidin-2-yl]pyrrolidine-2-carbonyl]piperazin-1-yl]ethanone] returned an IC50 in experiment [1] of 1910 nM. In addition, the IC50 in experiment [2] turned out to be 265 nM. Further, the IC50 in experiment [3] was found to be 110 nM. In experiment [4], the inhibition at 1 µM came out at 10%, the inhibition at 3 µM is -1%, the inhibition at 10 µM came out at 15% and the inhibition at 30 µM is 43%. In experiment [5], the inhibition at 1 µM was 19%, the inhibition at 3 µM was 9% and the inhibition at 30 µM was 60%.

Turning to `CN1CCN(C(=O)[C@H]2CCCN2c2nc3c(c(Nc4cc(C5CCCC5)n[nH]4)n2)CCC3)CC1=O` [136a, 4-[(2R)-1-[4-[(3-cyclopentyl-1H-pyrazol-5-yl)amino]-6,7-dihydro-5H-cyclopenta[d]pyrimidin-2-yl]pyrrolidine-2-carbonyl]-1-methyl-piperazin-2-one], the IC50 came out at 237 nM in experiment [1], 113 nM in experiment [2] and 83 nM in experiment [3]. The inhibition at 1 µM in experiment [4] worked out at 72%; in experiment [5], 64%.

Compound `O=C([C@H]1CCCN1c1nc2c(c(Nc3cc(C4CCCC4)[nH]n3)n1)CCC2)N1CC(F)(F)C(F)(F)C1` [110a, (R)-(1-(4-((5-cyclopentyl-1H-pyrazol-3-yl)amino)-6,7-dihydro-5H-cyclopenta[d]pyrimidin-2-yl)pyrrolidin-2-yl)(3,3,4,4-tetrafluoropyrrolidin-1-yl)methanone] came in with an IC50 in experiment [1] of 189 nM. This compound showed an IC50 in experiment [2] of 171 nM. The compound further showed an IC50 in experiment [3] of 80.4 nM. Besides, in experiment [4], the inhibition at 1 µM came out at 31%, the inhibition at 3 µM was 61%, the inhibition at 10 µM worked out at 83% and the inhibition at 30 µM turned out to be 96%. Further, in experiment [5], the inhibition at 1 µM stood at 32%, the inhibition at 3 µM worked out at 64% and the inhibition at 30 µM was found to be 97%.

As for `O=C([C@@H]1CCCN1c1nc2c(c(Nc3cc(C4CCCC4)[nH]n3)n1)CCC2)N1CC(F)(F)C(F)(F)C1` [110b, (S)-(1-(4-(5-cyclopentyl-1H-pyrazol-3-ylamino)-6,7-dihydro-5H-cyclopenta[d]pyrimidin-2-yl)pyrrolidin-2-yl)(3,3,4,4-tetrafluoropyrrolidin-1-yl)methanone], the IC50 in experiment [1] turned out to be 41 nM. Besides, the IC50 in experiment [2] is 2 nM. Besides, in experiment [3], the IC50 was 0.8 nM. In addition, in experiment [4], the inhibition at 1 µM was 1%, the inhibition at 3 µM turned out to be 18%, the inhibition at 10 µM is 34% and the inhibition at 30 µM is 68%. Moreover, in experiment [5], the inhibition at 1 µM is 3%, the inhibition at 3 µM is 21% and the inhibition at 30 µM came to 74%.
